Experimental data as given in patent US20240294588A1, “C2 Domain Therapeutics and Uses Thereof” (University of Maryland, Baltimore, priority 2021, published 2024).
Entries after “also recorded” stand apart in the source; their conditions may differ. Read-outs that look alike come from different tables or passages of the source.

Columns and labels:
[1] = system: dysferlin-null A/J myofibers; experiment: Distribution of Venus-tagged constructs (triad junctions vs Z-disks) in transfected myofibers; format: cell-based, mouse; conditions: FIG. 6
Description: (§1) FIGS. 2A-2E show the DYSF-C2A distribution and partial protection against loss of Ca^2+ transient and development of Ca^2+ waves after OSI. The construct in FIG. 2A was electroporated into Flexor digitorum brevis (FDB) muscles of dysferlin-null A/J mice and imaged 10 d later. […] Distribution of the Venus construct is indicated to the right. Recovery is partial (in the upper region of fiber). FIG. 2D quantitates results from several dozen fibers of each type. […] Higher levels of expression show more consistent recoveries and suppression of waves than lower levels.
The constructs in FIG. 4A were electroporated and visualized as in FIG. 2. […] Recovery is complete. FIG. 4D quantitates results from several dozen fibers transfected with each construct. […] Note the high level of Ca release and low frequency of waves indicated by the y-intercepts at low transfection levels.
A Venus-tagged version of the C2 domain of PKCα was expressed in both control (C57Bl/6) (FIG. 12A) and dysferlin-null (A/J) myofibers (FIG. 12B) and the transfected fibers were imaged. […] They help to explain the ability of the chimeric constructs containing Ven-C2-PKCα to potentiate the beneficial effects of the DYSF-C2A domain.

[2] = system: dysferlin-null A/J myofibers; experiment: Ca2+ signaling: voltage-induced Ca2+ transients (Rhod-2) and Ca2+ waves before and after osmotic shock injury (OSI) in electroporated FDB myofibers; format: cell-based, mouse; conditions: for Effect on amplitude of Ca2+ transients: A/J fibers, FIG. 8; for Ca2+ signaling activity (restoring/protecting amplitude of the Ca2+ transient after OSI): construct electroporated into dysferlin-null A/J FDB fibers, Rhod-2, before and 5 min after OSI; for Ca2+ wave frequency / suppression of Ca2+ waves after OSI: construct expressed in A/J fibers; for y-intercept for Ca transient (normalized Ca release vs amount of Venus construct in each fiber) / y-intercept for wave frequency (Ca wave frequency vs amount of Venus construct in each fiber): intercept at low expression level, FIG. 2E / FIG. 4E
Description: as §1
To assay Ca^2+ transients, Rhod-2 was added to myofibers as the Rhod2-AM derivative at a concentration of 4.4 μM, or almost 500× higher than the concentration of BAPTA-AM that effectively restores the WT phenotype. Rhod-2 is essentially rhodamine on a BAPTA backbone, so its mode of binding Ca^2+ is identical to that of BAPTA. Rhod-2 has a (calculated) Stokes' radius ˜20% larger than BAPTA; it has a lower affinity for Ca^2+ and its solubility in DMSO is ˜20× lower than BAPTA's. Rhod-2 appears to distribute uniformly in the myoplasm under these conditions of loading.

cultured myofibers = experiment: Accumulation of chelator in treated myofibers, estimated with fluorescent variant Fluo4-AM; format: cell-based; conditions: 10 nM extracellular concentration
Experimental: This concentration of BAPTA in myofibers is sufficient to restore elevated myoplasmic [Ca^2+ ] of 150-200 nM to levels close to WT levels of ˜100 nM. This can explain why as little as 10 nM BAPTA-AM can restore the WT phenotype.

dysferlin and PKCα = experiment: Colocalization and co-immunoprecipitation of dysferlin and PKCα; format: cell-based
[3] = system: dysferlin-null A/J myofibers; conditions: dysferlin-null fibers, background / known results, cited from earlier work
FDB muscles of A/J mice [4] = experiment: Membrane repair after infrared laser injury in the presence of FM4-64 dye; format: cell-based, mouse; conditions: A/J FDB muscle, FM4-64 fluorescence, area under curve
Description: FIGS. 3A-3B show the membrane repair by the DYSF-C2A domain. FDB muscles of A/J mice were electroporated with expression plasmids for WT DYSF or DYSF-C2A. 7d later muscles were removed and injured by infrared laser illumination in the presence of FM4-64 lipophilic dye. […] Means±SEM, n=7, *p<0.01 by ANOVA followed with Tukey's post-hoc test.

Solubility in DMSO = format: physicochemical
FDB muscles of A/J mice [5] = conditions: dysferlin-null fibers, background / known results; cited from earlier work

With “2 C2-PKCα domains with a single DYSF-C2A domain: construct that contains 2 C2-PKCα domains with a single DYSF-C2A domain; SEQ ID NO: 13” the “Transfected fibers with construct targeted to / concentrated at TJs” value [1] was 75%.

In the case of CC(=O)OCOC(=O)CN(CC(=O)OCOC(C)=O)c1ccccc1OCCOc1ccccc1N(CC(=O)OCOC(C)=O)CC(=O)OCOC(C)=O [BAPTA-AM, reference compound], the “Restoration of WT phenotype (Ca2+ transient before and after OSI, Ca2+ waves)” value ([2]; 10 nM added to cultured A/J myofibers) was “effectively restores A/J myofibers to the WT phenotype”.

For CC(=O)OCOC(=O)CN(CC(=O)OCOC(C)=O)c1ccc(C)cc1OCCOc1cc(-c2c3cc(F)c(=O)cc-3oc3cc(OCOC(C)=O)c(F)cc23)ccc1N(CC(=O)OCOC(C)=O)CC(=O)OCOC(C)=O [Fluo4-AM], the “Intracellular vs extracellular concentration” value (cultured myofibers) was 7-10 fold.

For CCCCCCCCCCCCCC(=O)O[C@@H]1[C@@H](C)[C@@]2(O)[C@@H](C=C(CO)C[C@]3(O)C(=O)C(C)=C[C@@H]23)[C@@H]2C(C)(C)[C@]12OC(C)=O [PMA, phorbol 12-myristate 13-acetate, reference compound], the “Effect on amplitude of Ca2+ transients” value [2] was “significantly alter the amplitude of the Ca^2+ transients” and the “Effect on colocalization of dysferlin and PKCα in myofibers and on co-IP from HEK cells” value (dysferlin and PKCα) was “neither phorbol 12-myristate 13-acetate (PMA) nor staurosporine, drugs that activate and inhibit PKCα, respectively, have any effect”.

For O=C1CN(/N=C/c2ccc(-c3ccc([N+](=O)[O-])cc3)o2)C(O)=N1 [dantrolene], the “Ca2+ signaling (Ca2+ transient amplitude, loss after OSI, waves), earlier studies” value [3] is given as “prevented these changes”.

For COc1ccc([C@@H]2Sc3ccccc3N(CCN(C)C)C(=O)[C@@H]2OC(C)=O)cc1 [diltiazem], the “Ca2+ signaling (Ca2+ transient amplitude, loss after OSI, waves), earlier studies” value [3] is given as “prevented these changes”.

In the case of CN[C@@H]1C[C@H]2O[C@@](C)([C@@H]1OC)n1c3ccccc3c3c4c(c5c6ccccc6n2c5c31)C(=O)NC4 [staurosporine, reference compound], the “Effect on amplitude of Ca2+ transients” value [2] was “significantly alter the amplitude of the Ca^2+ transients”.

With “A84V: full length dysferlin with polymorphism A84V in C2A [reference compound]” the “Ca2+ signaling activity (restoring/protecting amplitude of the Ca2+ transient after OSI)” value [2] was “left dysferlin's Ca^2+ signaling activity intact”.

For “C2 domain of PKCα: isolated C2 domain of PKCα (XP_024306597.1, residues 71-229), tagged with a Venus moiety”, the “Ca2+ signaling activity (restoring/protecting amplitude of the Ca2+ transient after OSI)” value [2] was “completely without activity”, the “Ca2+ signaling activity (restoring/protecting amplitude of the Ca2+ transient after OSI)” value ([2]; listed as PKCα-C2) was “failed to replicate the effects of DYSF-C2A” and the “Ca2+ signaling activity (restoring/protecting amplitude of the Ca2+ transient after OSI)” value ([2]; listed as PKCα-C2 domain) was “inactive”. The Membrane repair activity (FDB muscles of A/J mice [4]) was “inactive”.

For “C2-PKCα-DYSF-C2A: chimeric construct with C2-PKCα just N-terminal to DYSF-C2A, tagged with Venus; SEQ ID NO: 11”, the “Ca2+ signaling activity (restoring/protecting amplitude of the Ca2+ transient after OSI)” value [2] was “results identical to WT DYSF; also recorded: indistinguishable from WT DYSF in restoring the amplitude of the Ca^2+ transient”, the “Ca2+ wave frequency / suppression of Ca2+ waves after OSI” value [2] was “almost as effective in suppressing Ca^2+ waves” and the “y-intercept for Ca transient (normalized Ca release vs amount of Venus construct in each fiber)” value [2] was 3.7. The “y-intercept for wave frequency (Ca wave frequency vs amount of Venus construct in each fiber)” value [2] was 0.11, the Membrane repair activity (FDB muscles of A/J mice [4]) was “improved repair as well as WT DYSF; also recorded: just as effective as WT DYSF in supporting membrane repair” and the “Transfected fibers with construct targeted to / concentrated at TJs” value [1] was ~25%.

In the case of “DYSF-C2A: C2A domain of dysferlin (AF075575.1, amino acids 1-100) expressed on its own as a Venus fusion protein; SEQ ID NO: 4”, the “Ca2+ signaling activity (restoring/protecting amplitude of the Ca2+ transient after OSI)” value [2] was “intermediate between Venus (negative control) and WT DYSF (positive control) controls; also recorded: partially restored some Ca^2+ signaling activity”, the “Ca2+ wave frequency / suppression of Ca2+ waves after OSI” value [2] was “low frequency of Ca^2+ waves, only slightly more than with WT DYSF” and the “y-intercept for Ca transient (normalized Ca release vs amount of Venus construct in each fiber)” value [2] was 0.47. The “y-intercept for wave frequency (Ca wave frequency vs amount of Venus construct in each fiber)” value [2] was 0.37 and the Membrane repair activity (FDB muscles of A/J mice [4]) was “improved repair as well as WT DYSF; also recorded: fully stabilized membrane repair activity”.

For Rhod-2, the “Solubility in DMSO relative to BAPTA” value (Solubility in DMSO) was ~20 × lower.

With “V67D: full length dysferlin with pathogenic mutation V67D in C2A [reference compound]” the “Ca2+ signaling activity (restoring/protecting amplitude of the Ca2+ transient after OSI)” value [2] was “inactivated full length dysferlin”.

For “V68L: full length dysferlin with polymorphism V68L in C2A [reference compound]”, the “Ca2+ signaling activity (restoring/protecting amplitude of the Ca2+ transient after OSI)” value [2] was “left dysferlin's Ca^2+ signaling activity intact”.

For “W52R: full length dysferlin with pathogenic mutation W52R in C2A [reference compound]”, the “Ca2+ signaling activity (restoring/protecting amplitude of the Ca2+ transient after OSI)” value [2] was “inactivated full length dysferlin”.

For “WT dysferlin: wild type full length dysferlin introduced by electroporation, positive control”, the “Ca2+ signaling (Ca2+ transient amplitude, loss after OSI, waves), earlier studies” value [3] is listed as “restores full activity”, the “Ca2+ signaling (Ca2+ transient amplitude, loss after OSI, waves), earlier studies” value ([3]; listed as wild type dysferlin) is listed as “restores the amplitude of Ca^2+ transients to WT levels” and the “Membrane repair, earlier studies” value (FDB muscles of A/J mice [5]) is listed as “restores full activity”.
